Results from US9676771B2, “Compounds for inhibiting drug-resistant strains of HIV-1 integrase” (priority 2013, dated 2017).
Read-outs that look alike come from different tables or passages of the source.

Tests used:
[1] = tested on: HIV-1 constructs containing mutant IN R263K; assay: Single-round HIV-1 infectivity assay, IN mutant R263K; format: cell-based; settings: Human immunodeficiency virus 1
Method: (§1) Single-Round HIV-1 Infectivity Assay.
(§2) Human embryonyl kidney cell culture cell line 293 was acquired from the American type Culture Collection (ATCC).
(§3) […]. […] The virus-containing supernatants were then harvested, clarified by low-speed centrifugation, filtrated, and diluted for preparation in infection assays. […] After compound incorporation and activation in the cell, 100 μL of virus-stock diluted to achieve a maximum luciferase signal between 0.2 and 1.5 RLUs was added to each well and further incubated at 37° C. for 48 hrs. […] Activity was normalized to infectivity in the absence of target compounds. KaleidaGraph (Synergy Software, Reading, Pa.) was used to perform regression analysis on the data. EC50 values were determined from the fit model.
(§4) pNLNgoMIVR^−ΔEnv.LUC has been described previously (Zhao et al. 2008). The integrase codon reading frame was removed from pNLNgoMIVR^−ΔEnv LUC (between KpnI and SalI sites) and placed between the KpnI and SalI sites of pBluescript II KS+. Using that construct as the wild-type template, we prepared the following HIV-1 Integrase-resistant mutants via the QuikChange II XL (Stratagene, La Jolla, Calif.) site-directed mutagenesis protocol: H51Y, T66I, E92Q, G118R, Y143R, Q148H, Q148K, N155H, R263K, G140S+Q148H, G140A+Q148K, E138K+Q148K, and H51Y+R263K. The following sense with cognate antisense (not shown) oligonucleotides (Integrated DNA Technologies, Coralville, Iowa) were used in the mutagenesis: H51Y, 5′-[…]-3; T66I, 5′-[…]-3′; E92Q, 5′-[…]-3′; G118R, 5′-[…]-3′; E138K, 5′-[…]-3; G140A, 5′-[…]-3; G140S, 5′-[…]-3′; Y143R, 5′-[…]-3′; Q148H, 5′-[…]-3′; Q148K, 5′-[…]-3; N155H, 5′-[…]-3′; R263K 5′-[…]-3′. The double mutation G140S+Q148H was constructed by using the previously generated Q148H mutant and the appropriate oligonucleotide for the 2nd mutation, G140S. The double mutation G140A+Q148K was made by using the Q148K mutant and the appropriate oligonucleotide for the 2nd mutation, G140A. The double mutation E138K+Q148K was made by using the Q148K mutant and the appropriate oligonucleotide for the 2nd mutation, E138K. The double mutation H51Y+R263K was constructed by using the previously generated H51Y mutant and the appropriate oligonucleotides for the 2nd mutation, R263K. The DNA sequence of each construct was verified independently by DNA sequence determination. The mutant integrase coding sequences from pBluescript II KS+ were then subcloned into pNLNgoMIVR^−ΔEnv LUC (between the KpnI and SalI sites) to produce the full-length mutant HIV-1 Integrase constructs. These DNA sequences were additionally checked independently by DNA sequence determination.

HIV-1 integrase = HIV-1 integrase (Human immunodeficiency virus type 1 group M subtype B, UniProt P12497); assay: biochemical; format: biochemical
Outline: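 Compounds or DMSO added to 20 nM DNA and 400 nM integrase in 50 mM MOPS pH 7.2, 7.5 mM MgCl2, 14 mM 2-mercaptoethanol; 2 h at 37° C, quenched with formamide/SDS loading buffer. Products resolved on gels, imaged and quantified by densitometry.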

[2] = tested on: HIV-1 constructs containing mutant IN G118R; assay: microbe, parasite or virus in culture; format: cell-based; settings: for EC50: Human immunodeficiency virus 1
Method: as §1, §2, §3, §4

[3] = tested on: HIV-1 constructs containing wild-type IN; assay: microbe, parasite or virus in culture; format: cell-based
in vitro = format: cell-based, human; settings: human, 50% reduction in the level of ATP in HOS cells
Outline: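 Cells exposed to compounds over a concentration range for 48 hrs at 37° C. Viability read as cellular ATP by luciferase (ATPlite) luminescence after lysis, normalised to untreated cells; CC50 derived by regression fit.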

[4] = Table 8, read-out: EC50 (nM, IN mutants) R263K
[5] = Table 8, read-out: EC50 (nM, IN mutants) G118R
[6] = Human immunodeficiency virus 1, Table 8, WT IN, read-out: EC50 (nM, WT)
[7] = Table 6, read-out: EC50 (nM, IN Mutants) R263K
[8] = Table 6, read-out: EC50 (nM, IN Mutants) G118R
[9] = Human immunodeficiency virus 1, Table 3, WT IN, read-out: EC50 (nM, WT)
[10] = Table 4, 3′-processing, read-out: IC50 (3^+-Processing)
[11] = Table 4, strand transfer, read-out: IC50 (Strand Transfer)
[12] = Human immunodeficiency virus 1, read-out: EC50 (nM), Table 9, WT, normal 5% serum
[13] = Table 7, 3′-processing, read-out: IC50 (μM) 3′-P
[14] = Table 7, strand transfer, read-out: IC50 (μM) ST

| Structure (SMILES) | EC50 [1, 4] | EC50 [2, 5] | EC50 [3, 6] | CC50 (in vitro; Table 8) | EC50 [3, 12] | IC50 (HIV-1 integrase; [13]) | IC50 (HIV-1 integrase; [14]) | other results |
| --- | --- | --- | --- | --- | --- | --- | --- | --- |
| C[C@@H]1CCO[C@H]2Cn3cc(C(=O)NCc4ccc(F)cc4F)c(=O)c(O)c3C(=O)N12 [DTG, dolutegravir, reference compound] | 11.3 nM | 13 ± 5 nM | 1.6 nM | > 250 µM | – | – | – | IC50 (HIV-1 integrase; Table 10, strand transfer, read-out: IC50 (nM, ST)): 12.4 ± 2.6 nM |
| O=C(NCc1ccc(F)cc1F)c1c(O)c2cccnc2n(O)c1=O [XZ351, N-(2,4-difluorobenzyl)-1,4-dihydroxy-2-oxo-1,2-dihydro-1,8-naphthyridine-3-carboxamide] | – | – | – | – | – | – | – | EC50 [1, 7]: 35.9 ± 7.6 nM; IC50 (HIV-1 integrase; Table 1, 3′-processing, read-out: IC50 Values 3′-Processing): 1200 ± 200 nM; IC50 (HIV-1 integrase; Table 1, strand transfer, read-out: IC50 Values Strand transfer): 55 ± 8 nM; Integrase Mutants G118R, fold-change in EC50 relative to WT [2]: 6 x; EC50 [2, 8]: 107 ± 40 nM; SI [3]: 22,767; Si (selectivity index) [3]: 22,032; EC50 ([3]; Human immunodeficiency virus 1, Table 2, cells infected with lentiviral vector harboring WT IN, read-out: EC50): 6 nM; EC50 [3, 9]: 6.2 ± 2.9 nM; CC50 (in vitro; Table 2): 137 µM; CC50 (in vitro; Table 3): 137 ± 20.1 µM; CC50 (in vitro; Table 6): 137 ± 20.1 µM |
| COC(=O)CNc1c(C(=O)NCc2ccc(F)cc2F)c(=O)n(O)c2ncccc12 [XZ379, Methyl 2-((3-((2,4-difluorobenzyl)carbamoyl)-1-hydroxy-2-oxo-1,2-dihydro-1,8-naphthyridin-4-yl)amino)acetate] | – | – | – | – | 3.8 ± 1.2 nM | – | – | EC50 [1, 7]: 25.9 ± 8.2 nM; IC50 (HIV-1 integrase; [10]): 710 ± 100 nM; IC50 (HIV-1 integrase; [11]): 21 ± 11 nM; EC50 [2, 8]: 41.3 ± 18 nM; EC50 [3, 9]: 3.8 ± 1.2 nM; Si (selectivity index) ([3]; Table 3, ratio of CC50 to EC50): >25,000; CC50 (in vitro; Table 3): > 250 µM; CC50 (in vitro; Table 6): > 250 µM |
| CC(=O)OCCNc1c(C(=O)NCc2ccc(F)cc2F)c(=O)n(O)c2ncccc12 [XZ402, 2-((3-((2,4-difluorobenzyl)carbamoyl)-1-hydroxy-2-oxo-1,2-dihydro-1,8-naphthyridin-4-yl)amino)ethyl acetate] | – | – | – | – | 4.5 ± 1.5 nM | – | – | EC50 [1, 7]: 16 ± 5.1 nM; IC50 (HIV-1 integrase; [10]): 5300 ± 500 nM; IC50 (HIV-1 integrase; [11]): 27 ± 6 nM; EC50 [2, 8]: 43.5 ± 11.2 nM; EC50 [3, 9]: 4.5 ± 1.5 nM; Si (selectivity index) ([3]; Table 3, ratio of CC50 to EC50): >25,000; CC50 (in vitro; Table 3): > 250 µM; CC50 (in vitro; Table 6): > 250 µM |
| Nc1c(C(=O)NCc2ccc(F)cc2F)c(=O)n(O)c2ncc(CCCCCO)cc12 [XZ419, 4-Amino-N-(2,4-difluorobenzyl)-1-hydroxy-6-(5-hydroxypentyl)-2-oxo-1,2-dihydro-1,8-naphthyridine-3-carboxamide] | 2.6 nM | 5.3 nM | 1.3 nM | > 250 µM | 1.3 ± 0.2 nM | 8200 ± 1200 nM | 2.7 ± 0.4 nM | – |
| Nc1c(C(=O)NCc2ccc(F)cc2F)c(=O)n(O)c2ncc(CCCO)cc12 [XZ423, 4-Amino-N-(2,4-difluorobenzyl)-1-hydroxy-6-(3-hydroxypropyl)-2-oxo-1,2-dihydro-1,8-naphthyridine-3-carboxamide] | 2.5 nM | 10 nM | 3.1 nM | > 250 µM | – | 4300 ± 600 nM | 11.3 ± 2.7 nM | – |
| CC(=O)OCCCc1cnc2c(c1)c(N)c(C(=O)NCc1ccc(F)cc1F)c(=O)n2O [XZ424, 3-(5-Amino-6-((2,4-difluorobenzyl)carbamoyl)-8-hydroxy-7-oxo-7,8-dihydro-1,8-naphthyridin-3-yl)propyl acetate] | 1.75 nM | 5.9 nM | 1.4 nM | > 250 µM | – | 14300 ± 2100 nM | 10.2 ± 1.6 nM | – |
| Nc1c(C(=O)NCc2ccc(F)cc2F)c(=O)n(O)c2ncc(CCCCCCO)cc12 [XZ426, 4-Amino-N-(2,4-difluorobenzyl)-1-hydroxy-6-(6-hydroxyhexyl)-2-oxo-1,2-dihydro-1,8-naphthyridine-3-carboxamide] | 8.4 nM | 6.4 nM | 2.33 nM | > 250 µM | 2.3 ± 0.6 nM | 19000 ± 1000 nM | 0.59 ± 0.11 nM | – |
| Nc1c(C(=O)NCc2ccc(F)cc2F)c(=O)n(O)c2ncc(CCCCCCCCO)cc12 [XZ433, 4-Amino-N-(2,4-difluorobenzyl)-1-hydroxy-6-(8-hydroxyoctyl)-2-oxo-1,2-dihydro-1,8-naphthyridine-3-carboxamide] | 3.8 nM | 11.1 nM | 3.7 nM | > 250 µM | – | 32000 ± 6000 nM | 5.4 ± 0.8 nM | – |
| COC(=O)CCc1cnc2c(c1)c(N)c(C(=O)NCc1ccc(F)cc1F)c(=O)n2O [XZ434, Methyl 3-(5-amino-6-((2,4-difluorobenzyl)carbamoyl)-8-hydroxy-7-oxo-7,8-dihydro-1,8-naphthyridin-3-yl)propanoate] | 0.5 nM | 4.8 nM | 0.67 nM | > 250 µM | 0.7 ± 0.2 nM | 2900 ± 600 nM | 1.8 ± 0.2 nM | – |
| O=C(NCc1ccc(F)cc1F)c1c(NCCO)c2cc(CCCCCO)cnc2n(O)c1=O [XZ437, N-(2,4-Difluorobenzyl)-1-hydroxy-4-((2-hydroxyethyl)amino)-6-(5-hydroxypentyl)-2-oxo-1,2-dihydro-1,8-naphthyridine-3-carboxamide] | 18.1 nM | 23.9 nM | 13 nM | > 250 µM | – | 4000 ± 500 nM | 2.5 ± 0.2 nM | – |
| COC(=O)CCc1cnc2c(c1)c(NCCO)c(C(=O)NCc1ccc(F)cc1F)c(=O)n2O [XZ438, Methyl 3-(6-((2,4-difluorobenzyl)carbamoyl)-8-hydroxy-5-((2-hydroxyethyl)amino)-7-oxo-7,8-dihydro-1,8-naphthyridin-3-yl)propanoate] | 6.5 nM | 4.8 nM | 4.1 ± 1 nM | > 250 µM | – | 3200 ± 300 nM | 3.1 ± 0.3 nM | – |
